Assay results: patent US9925235B2, “Tilapia piscidins for use in enhancement of wound healing” (Academia Sinica, priority 2015, dated 2018)

How the values were obtained:
[1] = test system: Collagen I, collagen III, KGF gene expression in Hs-68 cells; test: Real-time PCR of collagen I, collagen III, KGF in Hs-68 cells; type: cell-based, human; conditions: TP4 6.25 μg/ml, 48 h, vs controls
Protocol: In FIG. 5A-5C, Hs-68 cells were treated with different doses of TP4 for 48 h, and cell viability was measured by neutral red, LDH, and MTT assays. (r=3; n=6.) In FIG. 5D-5F, the experimental Hs-68 cells were treated with TP4 ([…]), while control cells were untreated. After 48 h, total RNA was isolated and reverse transcribed for use in real-time qPCR analysis. Six replicate wells were analyzed per assay. Results represent the mean±SEM from three independent experiments. (Student's t-test: *, P<0.05; **, P<0.01; n.s.: not significant).
Total RNA was isolated from HaCaT and Hs-68 cells, and purified using a Qiagen RNeasy kit. Reverse transcription into cDNA was performed with an iScript cDNA Synthesis Kit (BIO-RAD, USA) according to the manufacturer's recommendations. Real-time polymerase chain reaction (PCR) was performed to analyze gene expression, using […] of cDNA, 2× iQSYBR® Green Supermix (BIO-RAD, USA), and 500 nM of forward and reverse primers against selected genes or GAPDH (reference gene), according to the instructions of the manufacturer. Quantitative PCR was performed under the following conditions: 40 cycles of 1 min at 95° C., 30 s at 55° C., and 1 min at 72° C. The threshold cycle number (Ct) was calculated with BIO-RAD software. Relative transcript quantities were calculated using the ΔCt method with GAPDH as the internal reference gene. ΔCt is the difference in the threshold cycles of messenger (m)RNA for selected genes relative to those of GAPDH mRNA. Real-time PCR was performed in triplicate for each experimental group.

[2] = test system: Keratin 10, keratin 17 gene expression in HaCaT cells; test: Real-time PCR of keratin 10 and keratin 17 in HaCaT cells; type: cell-based, human; conditions: TP4 6.25 μg/ml, 48 h
Protocol: In FIG. 6A-6C, HaCaT cells were treated with different doses of TP4 for 48 h, and cell viability was measured by neutral red, LDH, and MTT assays (r=3; n=6). In FIGS. 6D and 6E, thee experimental HaCaT cells were treated with TP4 (6.25 μg/ml), while control cells were untreated. After 48 h, total RNA was isolated and reverse transcribed for use in real-time qPCR analysis. Six replicate wells were analyzed per assay. Results represent the mean±SEM from three independent experiments. (Student's t-test: *, P<0.05; **, P<0.01, n.s.: not significant).
Total RNA was isolated from HaCaT and Hs-68 cells, and purified using a Qiagen RNeasy kit. Reverse transcription into cDNA was performed with an iScript cDNA Synthesis Kit (BIO-RAD, USA) according to the manufacturer's recommendations. […] Quantitative PCR was performed under the following conditions: 40 cycles of 1 min at 95° C., 30 s at 55° C., and 1 min at 72° C. The threshold cycle number (Ct) was calculated with BIO-RAD software. Relative transcript quantities were calculated using the ΔCt method with GAPDH as the internal reference gene. ΔCt is the difference in the threshold cycles of messenger (m)RNA for selected genes relative to those of GAPDH mRNA. […]

[3] = test system: MRSA; test: Mouse wound healing model, wound closure, TP4; type: in vivo, Balb/c mice; conditions: MRSA-contaminated full-thickness wounds
Protocol: Female Balb/c mice (6-8 weeks old) were used for wound healing experiments. All mice were housed individually to prevent fighting and further damage to the wounds, and they were provided with food and water ad libitum. Mice were maintained on a 12 h light: dark cycle at room temperature, and acclimatized to the environment for at least a week before use in experiments. All researchers wore caps, sterile gloves, gowns, and shoe covers when handling mice. Hair was removed from the back of the mice by shaving, and a full thickness wound (1 cm in diameter) was then created in the exposed region. Each wound was inoculated with 50 μl of broth mix containing 10^6 cfu (colony forming units) of S. aureus. At 5 min after inoculation, 50 μl TP4 (2 mg/ml) in a total volume of 0.1 ml were applied. […] Animals were subsequently euthanized by CO2 inhalation and the wounds assessed. […] Each wound was measured and then removed from the animal, with unwounded skin taken from the contralateral dorsum as a control. Each biopsy was divided into six sections, with three sections being used for tensiometry and histology, and three sections for quantitative determination of microbial load. […]
Tracings were taken immediately after injury. For uncontaminated wounds, wound size was determined every second day. […] Wound areas were determined using the Macintosh Adobe Photoshop program, Histogram Analysis. […]

[4] = test system: TNF, IL-6, IL-1; test: ELISA of serum cytokines in MRSA wound-infected mice, TP4; type: in vivo
Protocol: A skin region of about 1 square centimeter was removed from the abdomen of […] mice, and the wound was infected with […] of broth mix containing 10^6 cfu of MRSA alone, or together with methicillin, vancomycin, or TP4. At different days post-infection: TNF (FIG. 9A), IL-6 (FIG. 9B), and IL-1 (FIG. 9C) were detected in serum by ELISA. (r=3; n=6.) Values with different letters show significant differences (P<0.05), as determined by ANOVA.
(§1) Skin tissues were removed and fixed as previously described. In brief, the cryosections were fixed with 4% formaldehyde, and the tissue samples were stained with VEGF. IHC was analyzed by three independent investigators. Images were taken using a BX-51 microscope (Olympus, Japan). ELISA was performed as previously described.

[5] = test system: EGF, TGF-β, VEGF gene expression; test: Real-time PCR of cell proliferation genes and histology of infected wounds, TP4; type: in vivo, mice
Excerpt: Adult mice were infected with MRSA, and treated with TP4 or antibiotics, while controls were infected but untreated. On the indicated days, total RNA was isolated from the wound and reverse transcribed for use in real-time qPCR analysis of EGF (FIG. 10A), TGF-β (FIG. 10B), and VEGF (FIG. 10C) gene expression. (r=3; n=6.) Values with different letters show significant differences (P<0.05), as determined by ANOVA.
Tracings were taken immediately after injury. For uncontaminated wounds, wound size was determined every second day. For contaminated wounds, mice were euthanized at days 3, 5, or 19, and tracings of the wound edges were made. Wound areas were determined using the Macintosh Adobe Photoshop program, Histogram Analysis. The percentage of wound contraction was calculated as follows: % Wound contraction=(A0−At)/A0×100, where A0 is the original wound area, and at is the area of wound at the time of biopsy, accordingly. Cell proliferation gene expression was performed by real-time PCR, using the methods described above.
as §1

[6] = serum, 3 days after treatment, vs positive controls

Tilapia piscidin 4 (FIHHIIGGLFSAGKAIHRLIRRRRR; listed as Oreochromis niloticus) [TP4]
Collagen I gene expression [1]: enhanced
Collagen III gene expression [1]: enhanced
KGF gene expression [1]: enhanced
gene expression of keratin 10 [2]: significantly increased
gene expression of keratin 17 [2]: did not affect
day of wound closure [3]: 21 days
wound closure [3]: wound closure was accelerated
IL-1 ([4]; TP4-treated wounds vs control wounds): statistically significant enhancement
induction of IL-6 [4, 6]: decreased induction
induction of TNF [4, 6]: decreased induction
epidermal regeneration, histological examination of biopsies ([5]; TP4-treated wounds): complete and architecturally normal epidermal regeneration
gene expression of EGF ([5]; wound tissue, 3 days, vs control and vancomycin-treated mice): enhanced gene expression
gene expression of TGF ([5]; wound tissue, 7 days, vs control and vancomycin-treated mice): enhanced gene expression
gene expression of VEGF ([5]; wound tissue, 14 days, vs control and vancomycin-treated mice): enhanced gene expression
